Data on two compounds can be found in patent US8252807B2, “Methods of inhibiting the interaction between S100 and the receptor for advanced glycation end-products” (Board of Regents, The University of Texas System, priority 2007, dated 2012).

Values joined by “and” are separate entries in the source; they are usually repeats but may differ in a detail not shown here. Identical values can stand only once.

One series relates to BxPC-3 cells. The series can be described thus: Flow cytometry to measure apoptosis in BxPC-3 cells. As to conditions: 48 hours. Format: cell-based. The method, then: BxPC-3 cells were treated with cromolyn (10 μM) with (+) or without (−) gemcitabine (10 μM), and apoptosis was analyzed after 48 hours by flow cytometry. *, P<0.001 versus control, #, P=0.001 versus gemcitabine. Means and 95% confidence intervals of three independent experiments performed in triplicate are shown. Two-tailed two-sample (unpaired) Student's t-tests were used to determine P values. Standard propidium iodide (PI) staining by the hypotonic lysis method was used for apoptosis studies. Apoptosis was induced in 1.0×10^6 BxPC-3 cells by treatment with gemcitabine (10 μM), with or without cromolyn. After 48 hours the cells were detached from culture dishes by incubation in 0.05% trypsin-EDTA, washed once with cold PBS, and then incubated for 30 minutes in 500 μL of hypotonic solution (0.1% sodium citrate, 0.1% Triton X-100, 100 μg/mL RNAse, and 50 μg/mL PI), and analyzed by flow cytometry (EPICS XL, Beckman Coulter Inc, Fullerton, Calif.). Cells undergoing apoptosis that had lost part of their DNA were identified as the population of cells with sub-G1 DNA content. These assays were performed three times.

The subject of another series is BxPC-3 orthotopic tumors. The series can be described thus: Tumor growth and metastasis in scid mice, BxPC-3 orthotopic. Format: in vivo. The note with it: for lung metastasis, mean: control mean=5.5×10^8; for tumor burden (primary tumor volume by bioluminescence), mean: end of six weeks, cromolyn 5 mg per kg daily i.p., gemcitabine 125 mg per kg bi-weekly i.p., control mean=1.6×10^9. The method, then:
BxPC-3 cells stably expressing the firefly luciferase gene were injected orthotopically into 4 week old male CB 17 scid mice. […] Mice were divided into four groups of five mice each with an equivalent mean tumor size between groups. […] One group was treated with water (control), one group received gemcitabine bi-weekly (125 mg kg body weight bi-weekly by intraperitoneal injection), one group was administered cromolyn daily (5 mg per kg body weight daily by intraperitoneal injection), and the final group was given the combination of daily cromolyn and bi-weekly gemcitabine. All groups were treated for six weeks. Bioluminescent imaging was done weekly to assess tumor growth. […] Means and 95% confidence intervals are shown. (n=20). Two-tailed two-sample (unpaired) Student's t-tests were used to determine P values. The anti-tumorigenic capability of the drug cromolyn was assessed in 4-week-old male CB 17 scid mice (n=20) carrying orthopic tumors of BxPC-3, MPanc96, and Panc-1 cells stably expressing a Lenti-luc reporter. All mouse experiments were reviewed and approved by the Institutional Animal Care and Use Committee of UT MD Anderson Cancer Center. All mice were maintained in a sterile environment. Cages, bedding, food, and water were all autoclaved. All mice were maintained on a daily 12-hour light/12-hour dark cycle, according to the institutional animal welfare guidelines. BxPC-3, MPanc96, and Panc-1 cells carrying the Lenti-luc reporter gene were grown to 80% confluence, harvested by incubation with trypsin-EDTA, washed twice in PBS, and resuspended to a final concentration of 4.0×10^6 cells/mL. Each mouse (n=20 mice per cell line) was injected (into the pancreas) with cell suspensions (50 μL). […] This initial tumor volume was used to divide the mice into four groups of five mice each, such that the mean tumor size was equal between groups (FIGS. 4A, 5A, and 6A). To allow enough time to observe differences among treatment groups, the mice were followed for the next 5 weeks. One group of mice was then treated biweekly with a sub-maximal concentration of gemcitabine (125 mg per kg body weight by i.p. injection). A second group was treated with a daily injection of cromolyn (5 mg per kg body weight by i.p. injection). A third group was treated with both bi-weekly gemcitabine and daily cromolyn. The control group was treated daily with vehicle. Treatments were continued for 5 weeks, and the effects on the tumor burden and metastasis were analyzed by weekly bioluminescence imaging (FIGS. 4B, 5B, and 6B). At the end of the experiment the mice were anesthetized with 1.5% isofluorane/air mixture and killed by cervical dislocation. […] Before imaging, mice were placed in an acrylic chamber, anesthetized with 1.5% isofluorane/air mixture, and injected i.p. with 15 mg/mL of luciferin potassium salt in PBS at a dose of 150 mg per kg body weight. A digital grey scale image of each mouse was acquired, followed by acquisition and overlay of a pseudocolor image representing the spatial distribution of detected photons emerging from active luciferase within the mouse. Tumor volume was quantified as the sum of all detected photons within the region of the tumor per second. At the end of experiment, the mice were killed, and tumors were surgically removed and weighed. After the primary tumors were removed, cancer cell dissemination and metastasis was visualized using IVIS imaging, and metastatic colonies were counted. Subsequently, tissues were fixed with formaldehyde, and histology was used to verify the accuracy of the bioluminescence data.

For `Nc1ccn([C@@H]2O[C@H](CO)[C@@H](O)C2(F)F)c(=O)n1` [gemcitabine], the “apoptotic BxPC-3 cells, mean” value in the series with BxPC-3 cells (gemcitabine 10 μM, cromolyn 10 μM, control mean=3.7%) was 31.0% and 30.8%. Besides, in the series on BxPC-3 cells (gemcitabine 10 μM), the “apoptotic BxPC-3 cells, difference versus control” value is given as 27.3%. In the series on BxPC-3 orthotopic tumors (BxPC-3), the “tumor burden, difference versus control” value is reported as 6.8×10^8 photons/sec; the “lung metastasis, mean” value is given as 3.9×10^8 photons/sec; the “tumor burden (primary tumor volume by bioluminescence), mean” value is reported as 9.2×10^8 photons/sec. Further, in the series on BxPC-3 orthotopic tumors (BxPC-3, versus control), the “effect on liver metastasis” value is “did not reduce metastasis” and the “effect on lung metastasis” value is “did not reduce metastasis”. Besides, the “body weight, difference versus control” value in the series on BxPC-3 orthotopic tumors (BxPC-3 model) turned out to be 3.9 g. Also, the “body weight at the end of the experiment, mean” value in the series on BxPC-3 orthotopic tumors (BxPC-3 model, control mean=31.1) was 27.2 g.
As to `O=C(O)c1cc(=O)c2c(OCC(O)COc3cccc4oc(C(=O)O)cc(=O)c34)cccc2o1` [cromolyn, disodium 1,3-bis[(2′-carboxylatochromon-5′-yl)oxy]-2-hydroxypropane], the “effect on BxPC-3 cell apoptosis, cromolyn alone” value in the series on BxPC-3 cells (cromolyn 10 μM) is “no statistically significant effect”. In addition, in the series on BxPC-3 orthotopic tumors (BxPC-3), the “lung metastasis, difference versus control” value is 3.9×10^8 photons/sec; the “tumor burden, difference versus control” value was 1.2×10^9 photons/sec; the “lung metastasis, mean” value is listed as 1.6×10^8 photons/sec; the “tumor burden (primary tumor volume by bioluminescence), mean” value was 4.4×10^8 photons/sec. In addition, in the series with BxPC-3 orthotopic tumors (BxPC-3 model, up to 6 weeks), the “effect on body weight” value is reported as “no effect on body weight”.
